The results in this text go back to patent US8278436B2, “Glycosylated warfarin analogs and uses thereof” (priority 2008, dated 2012).

Common to all, as to format: cell-based
The subject of assay [1] is NCI-H460 human lung adenocarcinoma cells. Kind of assay: cell proliferation assay, NCI-H460. An excerpt: (§1) In this Example, the warfarin neoglycosides of the invention were screened for anti-tumor activity in cell proliferation assays using the following tumor cells lines: A549—human lung adenocarcinoma; H1299—human lung adenocarcinoma (p53 null); HCT-15—human colorectal adenocarcinoma; HT-29—human colorectal adenocarcinoma; MCF7—human breast adenocarcinoma; NCI-H460—human lung adenocarcinoma; SF-268—human CNS adenocarcinoma; and SKOV-3—human ovarian adenocarcinoma.
(§2) All cell lines were maintained as previously reported (see Langenhan, J. M.; Peters, N. R.; Guzei, I. A.; Hoffmann, F. M.; Thorson, J. S. Proc. Natl. Acad. Sci. USA 2005, 102, 12305-12310, which is incorporated by reference herein). Cells were harvested using 0.25% trypsin and 0.1% EDTA and counted in a Cellometer Auto T4 cell counter (Nexcelom, Inc.) prior to dilution for assay plating. Cells were plated at a denity of 500 cells per well in 50 μL volumes in 384-well clear-bottom tissue culture plates (Corning-Costar, Inc.).
(§3) Compounds were added from the 384-well compound stock plates at a 1:100 dilution using a Biomek FX liquid handler equipped with a 384-channel head (Beckman Coulter, Inc.). The plates were incubated for 7 days at 37° C. in a 5% CO2 atmosphere prior to performing the assays. Calcein AM (acetoxymethyl ester) reagent and EthD-1 (30 μL, 10 μM CAM and 100 μM EthD-1) was added and the cells were incubated for 30 min at 37° C. […] resulting from incubation with Calcein AM and EthD-1 was read using a Safire-2 microplate reader at the appropriate wavelengths. To lyse the cells, 15 μL of CellTiter-Glo reagent (Promega Corporation, Inc.) was added and the cells were incubated for 10 min at room temperature with gentle agitation. The luminescence of each plate was re-read to confirm the observed inhibition.
(§4) IC50s for cell proliferation assays were determined for Calcein AM, the ratio of live/dead cells (Calcein AM/EthD-1), and CellTiter-Glo using XLfit 4.0 as previously described (see Langenhan, J. M.; Peters, N. R.; Guzei, I. A.; Hoffmann, F. M.; Thorson, J. S. Proc. Natl. Acad. Sci. USA 2005, 102, 12305-12310, which is incorporated by reference herein). The IC50 determined using the best fit curve for dosage response from any of the 3 assays is reported as the final IC50. The best fit curve is defined as the curve with the lowest standard error.

The test system of assay [2] is HCT-15 human colorectal adenocarcinoma cells. Kind of assay: cell proliferation assay, HCT-15. The conditions noted are these: Table 3 summary of most active compounds, IC50, read-out: HCT15 Colorectal.
Text: as §1, §2, §3, §4

For assay [3], the system named is H1299 human lung adenocarcinoma (p53 null) cells. Kind of assay: cell proliferation assay, H1299.
Text: as §1, §2, §3
(§5) IC50s for cell proliferation assays were determined for Calcein AM, the ratio of live/dead cells (Calcein AM/EthD-1), and CellTiter-Glo using XLfit 4.0 as previously described (see Langenhan, J. M.; Peters, N. R.; Guzei, I. A.; Hoffmann, F. M.; Thorson, J. S. Proc. Natl. Acad. Sci. USA 2005, 102, 12305-12310, which is incorporated by reference herein). The IC50 determined using the best fit curve for dosage response from any of the 3 assays is reported as the final IC50.

The subject of assay [4] is A549 human lung adenocarcinoma cells. Kind of assay: cell proliferation assay, A549. The conditions noted are these: read-out: A549 Lung (+p53).
Text: as §1, §2, §3, §4

For assay [5], the system named is SKOV-3 human ovarian adenocarcinoma cells. Kind of assay: cell proliferation assay, SKOV-3. The conditions noted are these: read-out: SKOV3 Ovarian.
Text: as §1, §2, §3, §4

Assay [6] has as its system SF-268 human CNS adenocarcinoma cells. Kind of assay: cell proliferation assay, SF-268.
Text: as §1, §2, §3, §5

Assay [7] concerns MCF7 human breast adenocarcinoma cells. Kind of assay: cell proliferation assay, MCF7.
Text: as §1, §2, §3, §5

The subject of the next assay is NCI/ADR-RES. Kind of assay: cell proliferation assay, NCI/ADR-RES. The conditions noted are these: Table 3 summary of most active compounds. As for the experimental part:
as §2, §3, §5

Assay [8] concerns HT-29 human colorectal adenocarcinoma cells. Kind of assay: cell proliferation assay, HT-29.
Text: as §1, §2, §3, §4

[9] abbreviates: Table 3 summary of most active compounds, listed as D-ribose.
[10] abbreviates: Table 3 summary of most active compounds, listed as L-lyxose.
Where [11] appears, read: Table 3 summary of most active compounds.
Setting [12] is: Table 3 summary of most active compounds, IC50, read-out: SF268 Giloblast.
Where [13] appears, read: Table 3 summary of most active compounds, IC50, read-out: H729 Colorectal.

Molecules are shown by their SMILES. pIC50: −log10 of the molar value. Read-outs that look alike come from different tables or passages of the source.

With `CON(C(C)CC(c1ccccc1)c1c(O)c2ccccc2oc1=O)C1OCC(O)C(O)C1O` (mixture of isomers) [WARF Analog 22], the pIC50 was under 4.00 in assay [1] (setting [9]); 4.57 in [2] (listed as D-ribose); 4.36 in [3] (setting [9]); under 4.00 in assay [4] (setting [9]); 4.22 in assay [5] (setting [9]); 4.14 in assay [6] (Table 3 summary of most active compounds, IC50, listed as D-ribose, read-out: SF268 Giloblast). The pIC50 is 4.39 in assay [7] (setting [9]); 4.18 in the assay on NCI/ADR-RES (listed as D-ribose); 4.11 in [8] (Table 3 summary of most active compounds, IC50, listed as D-ribose, read-out: H729 Colorectal).

Consider `CON(C(C)CC(c1ccccc1)c1c(O)c2ccccc2oc1=O)C1OCC(O)C(O)C1O` (mixture of isomers) [WARF Analog 23], for which the pIC50 in assay [1] (setting [10]) was under 4.00; in assay [2] (listed as L-lyxose) it was 4.85; in assay [3] (setting [10]), 4.52; in assay [4] (setting [10]) it was 4.02; in assay [5] (setting [10]) it was 4.22; in assay [6] (Table 3 summary of most active compounds, IC50, listed as L-lyxose, read-out: SF268 Giloblast), under 4.00. Moreover, the pIC50 in assay [7] (setting [10]) is 4.74; with NCI/ADR-RES (listed as L-lyxose), 4.25; in [8] (Table 3 summary of most active compounds, IC50, listed as L-lyxose, read-out: H729 Colorectal) it was 4.33.

In the case of `CON(C(C)CC(c1ccccc1)c1c(O)c2ccccc2oc1=O)C1CC(C)(O)C(O)C(C)O1` (mixture of isomers) [WARF Analog 37], the pIC50 in assay [1] (setting [11]) was under 4.00; in [2], 4.80; in assay [3] (setting [11]), under 4.00; in assay [4] (setting [11]) it was under 4.00; in [5] (setting [11]), under 4.00; in assay [6] (setting [12]), under 4.00. Moreover, the pIC50 (in assay [7] (setting [11]); with NCI/ADR-RES; in [8] (setting [13])) was under 4.00 each time.

Turning to `CON(C(C)CC(c1ccccc1)c1c(O)c2ccccc2oc1=O)C1C[C@@H](O)[C@@H](O)CO1` (stereo partly drawn) [WARF Analog 10], the pIC50 in [1] (setting [11]) was under 4.00; in [2] it was 4.92; in assay [3] (setting [11]), 4.11; in [4] (setting [11]), under 4.00; in assay [5] (setting [11]) it was under 4.00; in assay [6] (setting [12]), under 4.00. Moreover, the pIC50 in assay [7] (setting [11]) is 4.18; in the assay on NCI/ADR-RES, 4.04; in assay [8] (setting [13]), 4.06.

As to `CONC(C)CC(c1ccccc1)c1c(O)c2ccccc2oc1=O` (stereo not drawn) [WARF Analog C, 4-hydroxy-3-(3-(methoxyamino)-1-phenylbutyl)-2H-1-benzopyran-2-one], the pIC50 is under 4.00 in assay [1] (Homo sapiens, NCI-H460, Table 3 summary of most active compounds); under 4.00 in assay [2] (Homo sapiens, HCT-15); under 4.00 in assay [3] (Homo sapiens, NCI-H1299, Table 3 summary of most active compounds); under 4.00 in assay [4] (Homo sapiens, A549, Table 3 summary of most active compounds); under 4.00 in assay [5] (Homo sapiens, SK-OV-3, Table 3 summary of most active compounds); under 4.00 in assay [6] (Homo sapiens, SF-268, read-out: SF268 Giloblast). The pIC50 in assay [7] (Homo sapiens, MCF7, Table 3 summary of most active compounds) was under 4.00; with NCI/ADR-RES (Homo sapiens), under 4.00; in assay [8] (Homo sapiens, HT-29, read-out: H729 Colorectal) it was under 4.00.
